Measurements taken from patent US11597919B2, “Systems, methods and compositions for sequence manipulation with optimized functional CRISPR-Cas systems” (The Broad Institute, Inc., priority 2013, dated 2023).

B1: St3-SpCas9: St3Cas9 with the PI domain of SpCas9, SEQ ID NO: 122 (protein)
chain: MAPKKKRKVGIHGVPAAMTKPYSIGLDIGTNSVGWAVTTDNYKVPSKKMKVLGNTSKKYIKKNLLGVLLFDSGITAEGRRLKRTARRRYTRRRNRILYLQEIFSTEMATLDDAFFQRLDDSFLVPDDKRDSKYPIFGNLVEEKAYHDEFPTIYHLRKYLADSTKKADLRLVYLALAHMIKYRGHFLIEGEFNSKNNDIQKNFQDFLDTYNAIFESDLSLENSKQLEEIVKDKISKLEKKDRILKLFPGEKNSGIFSEFLKLIVGNQADFRKCFNLDEKASLHFSKESYDEDLETLLGYIGDDYSDVFLKAKKLYDAILLSGFLTVTDNETEAPLSSAMIKRYNEHKEDLALLKEYIRNISLKTYNEVFKDDTKNGYAGYIDGKTNQEEEDFYVYLKKLLAEFEGADYFLEKIDREDFLRKQRTFDNGSIPYQIHLQEMRAILDKQAKFYPFLAKNKERIEKILTFRIPYYVGPLARGNSDFAWSIRKRNEKITPWNFEDVIDKESSAEAFINRMTSFDLYLPEEKVLPKHSLLYETFNVYNELTKVRFIAESMRDYQFLDSKQKKDIVRLYFKDKRKVTDKDIIEYLHAIYGYDGIELKGIEKQFNSSLSTYHDLLNIINDKEFLDDSSNEAIIEEIIHTLTIFEDREMIKQRLSKFENIFDKSVLKKLSRRHYTGWGKLSAKLINGIRDEKSGNTILDYLIDDGISNRNFMQLIHDDALSFKKKIQKAQIIGDEDKGNIKEVVKSLPGSPAIKKGILQSIKIVDELVKVMGGRKPESIVVVVEMARENQYTNQGKSNSQQRLKRLEKSLKELGSKILKENIPAKLSKIDNNALQNDRLYLYYLQNGKDMYTGDDLDIDRLSNYDIDHIIPQAFLKDNSIDNKVLVSSASNRGKSDDVPSLEVVKKRKTFWYQLLKSKLISQRKFDNLTKAERGGLSPEDKAGFIQRQLVETRQITKHVARLLDEKFNNKKDENNRAVRTVKIITLKSTLVSQFRKDFELYKVREINDFHHAHDAYLNAVVASALLKKYPKLEPEFVYGDYPKYNSFRERKSATEKVYFYSNIMNIFKKSISLADGRVIERPLIEVNEETGESVWNKESDLATVRRVLSYPQVNVVKKTEVQTGGFSKESILPKRNSDKLIARKKDWDPKKYGGFDSPTVAYSVLVVAKVEKGKSKKLKSVKELLGITIMERSSFEKNPIDFLEAKGYKEVKKDLIIKLPKYSLFELENGRKRMLASAGELQKGNELALPSKYVNFLYLASHYEKLKGSPEDNEQKQLFVEQHKHYLDEIIEQISEFSKRVILADANLDKVLSAYNKHRDKPIREQAENIIHLFTLTNLGAPAAFKYFDTTIDRKRYTSTKEVLDATLIHQSITGLYETRIDLSQLGGDKRPAATKKAGQAKKKK
B2: A1099-1368: SpCas9 with deletion of the PI domain, SEQ ID NO: 118 (protein)
chain: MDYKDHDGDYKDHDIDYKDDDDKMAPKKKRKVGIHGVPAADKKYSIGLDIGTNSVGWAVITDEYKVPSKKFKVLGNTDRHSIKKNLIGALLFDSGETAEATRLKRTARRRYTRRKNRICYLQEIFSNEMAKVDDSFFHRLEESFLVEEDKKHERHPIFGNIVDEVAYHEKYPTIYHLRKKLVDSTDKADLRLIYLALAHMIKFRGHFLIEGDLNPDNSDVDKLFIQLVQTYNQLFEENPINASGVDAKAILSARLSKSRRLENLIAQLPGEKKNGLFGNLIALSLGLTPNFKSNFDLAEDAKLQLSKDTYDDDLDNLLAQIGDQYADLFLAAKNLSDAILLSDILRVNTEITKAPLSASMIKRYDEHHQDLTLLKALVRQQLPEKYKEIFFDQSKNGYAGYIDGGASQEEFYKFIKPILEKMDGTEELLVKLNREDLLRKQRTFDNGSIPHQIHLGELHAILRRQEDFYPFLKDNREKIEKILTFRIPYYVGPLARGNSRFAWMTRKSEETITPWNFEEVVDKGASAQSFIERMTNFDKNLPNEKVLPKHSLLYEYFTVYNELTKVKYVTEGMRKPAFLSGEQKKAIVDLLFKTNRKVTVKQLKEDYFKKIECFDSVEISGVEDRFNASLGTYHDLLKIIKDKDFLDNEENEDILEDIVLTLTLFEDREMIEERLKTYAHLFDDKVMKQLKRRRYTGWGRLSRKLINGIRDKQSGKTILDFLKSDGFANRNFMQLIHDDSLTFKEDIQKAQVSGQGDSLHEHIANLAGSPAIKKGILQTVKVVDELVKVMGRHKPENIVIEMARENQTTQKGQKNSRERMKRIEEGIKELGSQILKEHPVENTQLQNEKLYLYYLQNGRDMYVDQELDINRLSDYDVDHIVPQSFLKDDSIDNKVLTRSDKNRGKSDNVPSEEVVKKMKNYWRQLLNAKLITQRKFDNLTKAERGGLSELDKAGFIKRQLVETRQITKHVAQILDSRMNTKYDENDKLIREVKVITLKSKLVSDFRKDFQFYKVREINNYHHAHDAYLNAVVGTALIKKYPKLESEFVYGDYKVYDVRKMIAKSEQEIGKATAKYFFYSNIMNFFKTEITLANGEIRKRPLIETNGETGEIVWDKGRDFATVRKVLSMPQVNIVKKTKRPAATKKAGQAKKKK
B3: Cas9 (A175-307): Cas9 mutant lacking the REC2 domain, SEQ ID NO: 116 (protein)
chain: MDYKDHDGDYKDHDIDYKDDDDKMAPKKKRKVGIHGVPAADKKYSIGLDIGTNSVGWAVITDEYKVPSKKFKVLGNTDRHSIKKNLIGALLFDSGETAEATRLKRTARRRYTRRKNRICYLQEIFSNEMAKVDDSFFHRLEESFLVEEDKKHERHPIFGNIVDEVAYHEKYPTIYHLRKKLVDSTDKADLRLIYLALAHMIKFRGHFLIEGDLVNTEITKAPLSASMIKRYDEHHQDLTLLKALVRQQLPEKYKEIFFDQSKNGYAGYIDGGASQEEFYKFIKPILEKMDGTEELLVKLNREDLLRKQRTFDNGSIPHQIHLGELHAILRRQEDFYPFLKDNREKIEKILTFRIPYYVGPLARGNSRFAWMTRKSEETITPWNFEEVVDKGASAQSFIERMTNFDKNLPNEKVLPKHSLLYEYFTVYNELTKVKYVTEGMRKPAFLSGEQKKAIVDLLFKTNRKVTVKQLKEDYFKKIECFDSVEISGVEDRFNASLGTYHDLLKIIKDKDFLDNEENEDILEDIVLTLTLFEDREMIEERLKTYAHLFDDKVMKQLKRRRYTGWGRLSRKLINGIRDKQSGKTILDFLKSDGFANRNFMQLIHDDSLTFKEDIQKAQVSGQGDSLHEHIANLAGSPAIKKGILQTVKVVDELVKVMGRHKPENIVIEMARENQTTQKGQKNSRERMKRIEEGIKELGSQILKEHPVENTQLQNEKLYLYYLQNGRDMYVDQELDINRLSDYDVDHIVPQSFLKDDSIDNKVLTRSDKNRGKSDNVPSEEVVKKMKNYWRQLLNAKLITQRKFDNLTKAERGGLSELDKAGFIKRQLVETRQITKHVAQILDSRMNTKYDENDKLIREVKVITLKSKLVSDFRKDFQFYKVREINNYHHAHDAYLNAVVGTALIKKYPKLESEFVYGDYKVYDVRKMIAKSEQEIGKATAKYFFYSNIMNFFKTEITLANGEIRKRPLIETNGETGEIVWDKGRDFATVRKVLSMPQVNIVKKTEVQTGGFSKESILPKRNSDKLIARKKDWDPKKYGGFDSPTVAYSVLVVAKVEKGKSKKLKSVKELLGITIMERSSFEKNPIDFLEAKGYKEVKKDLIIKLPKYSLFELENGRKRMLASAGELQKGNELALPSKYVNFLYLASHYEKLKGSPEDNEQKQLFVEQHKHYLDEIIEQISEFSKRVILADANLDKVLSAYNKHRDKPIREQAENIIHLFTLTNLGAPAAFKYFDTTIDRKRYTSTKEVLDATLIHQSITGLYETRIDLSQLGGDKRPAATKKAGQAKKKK

Tests used:
Factor VII = settings: LNP siRNA systems containing these lipids; cited from earlier work
[1] = system: target DNA with 5′-NGG PAM; test: Cleavage of target DNA bearing 5′-NGG PAM by PI domain chimeras (Example 12); type: cell-based, human; settings: 5′-GGGCT
Description: (§1) Cells were transfected using Lipofectamine 2000 (Life Technologies) at 70-80% confluency following the manufacturer's recommended protocol.
(§2) Genomic DNA was extracted using the QuickExtract DNA Extraction Solution (Epicentre) following the manufacturer's protocol.
(§3) 400 ng total of the purified PCR products were mixed with 2 μl 10× Taq DNA Polymerase PCR buffer (Enzymatics) and ultrapure water to a final volume of 20 μl, and subjected to a re-annealing process to enable heteroduplex formation: 95° C. for 10 min, 95° C. to 85° C. ramping at −2° C./s, 85° C. to 25° C. at −0.25° C./s, and 25° C. hold for 1 min. After re-annealing, products were treated with SURVEYOR nuclease and SURVEYOR enhancer S (Transgenomics) following the manufacturer's recommended protocol, and analyzed on 4-20% Novex TBE poly-acrylamide gels (Life Technologies). Gels were stained with SYBR Gold DNA stain (Life Technologies) for 30 min and imaged with a Gel Doc gel imaging system (Bio-rad). Quantification was based on relative band intensities. Indel percentage was determined by the formula, 100×(1−(1−(b+c)/(a+b+c))^1/2), where a is the integrated intensity of the undigested PCR product, and b and c are the integrated intensities of each cleavage product.

[2] = system: genomic DNA in human embryonic kidney 293FT (HEK293FT) cells; test: SURVEYOR nuclease assay of Cas9 and sgRNA mutants (Example 12); type: cell-based
Description: as §1, §2, §3

Row | Molecule | gene silencing potency series (Factor VII) | further results
1 | 1,2-dilinoleyloxy-keto-N,N-dimethyl-3-aminopropane [DLinKDMA] | DLinKC2-DMA>DLinKDMA>DLinDMA>>DLinDAP | 
2 | CCCCC/C=C\C/C=C\CCCCCCCC(=O)OCC(CN(C)C)OC(=O)CCCCCCC/C=C\C/C=C\CCCCC (stereo not shown) [DLinDAP, 1,2-dilineoyl-3-dimethylammonium-propane] | DLinKC2-DMA>DLinKDMA>DLinDMA>>DLinDAP | 
3 | CCCCC/C=C\C/C=C\CCCCCCCCOCC(CN(C)C)OCCCCCCCC/C=C\C/C=C\CCCCC (stereo not shown) [DLinDMA, 1,2-dilinoleyloxy-3-N,N-dimethylaminopropane] | DLinKC2-DMA>DLinKDMA>DLinDMA>>DLinDAP | 
4 | CCCCC/C=C\C/C=C\CCCCCCCCC1(CCCCCCCC/C=C\C/C=C\CCCCC)OCC(CCN(C)C)O1 (stereo not shown) [DLinKC2-DMA, 1,2-dilinoleyl-4-(2-dimethylaminoethyl)-[1,3]-dioxolane] | DLinKC2-DMA>DLinKDMA>DLinDMA>>DLinDAP | 
5 | B1 |  | cleavage of target DNA with 5′-NGG PAM [1]: cleaved
6 | B2 |  | DNA cleavage activity ([2]; Cas9 truncation and point mutants): abolished the cleavage activity
7 | B3 |  | activity relative to wild-type Cas9 ([2]; indel, SURVEYOR, n=3): ~50%
